Patent US10450347B2, “Immunomodulators” (BRISTOL-MYERS SQUIBB COMPANY, priority 2015, dated 2019)
Starred links: 1 amine or outer side, 2 acyl side, 3 side chain; linkers in the order of their positions; H or OH if unused. Positions of bridges follow the written chain, without caps; N, C: chain ends. Non-standard residues stand in square brackets, D forms with d. Residues, ends and D or L forms follow the SMILES beside them. ξ: configuration not given here. Tyrψ(CN4)Ala = C[C@@H](C(=O)[*:2])n1nnnc1[C@H](Cc1ccc(O)cc1)N[*:1]; X1 = CCCC[C@@H](C(=O)[*:2])n1nnnc1[C@H](Cc1c[nH]c2ccccc12)N[*:1]; Morpholine(3S-CO) = O=C(O)[C@@H]1COCCN1; Bta = N[C@@H](Cc1csc2ccccc12)C(=O)O; Hyp = O=C(O)[C@@H]1C[C@@H](O)CN1; NMeNle = CCCC[C@H](NC)C(=O)O; ξH = NC(Cc1c[nH]cn1)C(=O)O; NMeA = CN[C@@H](C)C(=O)O; Orn = NCCC[C@H](N)C(=O)O; Dab = NCC[C@H](N)C(=O)O; Dap = NC[C@H](N)C(=O)O; ξC = NC(CS)C(=O)O

Target: T1, PD-1-Ig/PD-L1-His (Homo sapiens, UniProt Q9NZQ7)
T1 construct: [hPD-L1(19-239)-tobacco vein mottling virus protease cleavage site (TVMV)-His]; made in house; host or cells: HEK293T cells
T1 sequence (Q9NZQ7 with tags, fused parts or gaps): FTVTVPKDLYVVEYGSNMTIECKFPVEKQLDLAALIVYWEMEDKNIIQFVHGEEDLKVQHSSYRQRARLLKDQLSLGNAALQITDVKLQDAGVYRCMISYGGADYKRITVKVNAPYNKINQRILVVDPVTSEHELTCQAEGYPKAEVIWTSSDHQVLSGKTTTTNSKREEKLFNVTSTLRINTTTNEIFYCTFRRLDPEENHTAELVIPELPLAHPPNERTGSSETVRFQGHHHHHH
Experiment: PD-1/PD-L1 Homogenous Time-Resolved Fluorescence (HTRF) binding assay
Conditions: inhibition of PD-1-Ig binding to PD-L1-TVMV-His
Excerpt: The ability of the macrocyclic peptides of the present disclosure to bind to PD-L1 was investigated using a PD-1/PD-L1 Homogenous Time-Resolved Fluorescence (HTRF) binding assay.
Homogenous Time-Resolved Fluorescence (HTRF) Assays of Binding of Soluble PD-1 to Soluble PD-L1. Soluble PD-1 and soluble PD-L1 refers to proteins with carboxyl-end truncations that remove the transmembrane-spanning regions and are fused to heterologous sequences, specifically the Fc portion of the human immunoglobuling G sequence (Ig) or the hexahistidine epitope tag (SEQ ID NO: 3) (His). All binding studies were performed in an HTRF assay buffer consisting of dPBS supplemented with 0.1% (w/v) bovine serum albumin and 0.05% (v/v) Tween-20. For the PD-1-Ig/PD-L1-His binding assay, inhibitors were pre-incubated with PD-L1-His (10 nM final) for 15 m in 4 μl of assay buffer, followed by addition of PD-1-Ig (20 nM final) in 1 μl of assay buffer and further incubation for 15 m. PD-L1 fusion proteins from either human, cynomologous macaques, mouse, or other species were used. HTRF detection was achieved using europium crypate-labeled anti-Ig monoclonal antibody (1 nM final) and allophycocyanin (APC) labeled anti-His monoclonal antibody (20 nM final). Antibodies were diluted in HTRF detection buffer and 5 μl was dispensed on top of binding reaction. The reaction was allowed to equilibrate for 30 minutes and signal (665 nm/620 nm ratio) was obtained using an EnVision fluorometer. Additional binding assays were established between PD-1-Ig/PD-L2-His (20 and 5 nM, respectively), CD80-His/PD-L1-Ig (100 and 10 nM, respectively) and CD80-His/CTLA4-Ig (10 and 5 nM, respectively). Binding/competition studies between biotinylated Compound No. 71 and human PD-L1-His were performed as follows. Macrocyclic peptide inhibitors were pre-incubated with PD-L1-His (10 nM final) for 60 minutes in 4 μl of assay buffer followed by addition of biotinylated Compound No. 71 (0.5 nM final) in 1 μl of assay buffer. Binding was allowed to equilibrate for 30 minutes followed by addition of europium crypated labeled Streptavidin (2.5 pM final) and APC-labeled anti-His (20 nM final) in 5 μl of HTRF buffer. The reaction was allowed to equilibrate for 30 m and signal (665 nm/620 nm ratio) was obtained using an EnVision fluorometer.
Recombinant Proteins. Carboxyl-truncated human PD-1 (amino acids 25-167) with a C-terminal human Ig epitope tag [hPD-1 (25-167)-3S-IG] and human PD-L1 (amino acids 18-239) with a C-terminal His epitope tag [hPD-L1(19-239)-tobacco vein mottling virus protease cleavage site (TVMV)-His] were expressed in HEK293T cells and purified sequentially by recombinant Protein A affinity chromatography and size exclusion chromatography. Human PD-L2-His (Sino Biologicals), CD80-His (Sino Biologicals), CTLA4-Ig (RnD Systems) were all obtained through commercial sources.

Row | SMILES | IC50 (range classes) | IC50 (numeric values)
1 | CCCC[C@H]1C(=O)N[C@@H](CCCN)C(=O)N[C@H](C(=O)NCC(N)=O)CSCC(=O)N[C@@H](Cc2ccc(O)cc2)C(=O)N(C)[C@@H](C)C(=O)N[C@@H](CC(N)=O)C(=O)N2CCC[C@H]2C(=O)N[C@@H](CN)C(=O)N[C@@H](CC(C)C)C(=O)N2C[C@H](O)C[C@H]2C(=O)N[C@@H](Cc2c[nH]c3ccccc23)C(=O)N[C@@H](CO)C(=O)N[C@@H](Cc2c[nH]c3ccccc23)c2nnnn2[C@@H](CCCC)C(=O)N1C [Example 1051] ({CH2CO}-Y[NMeA]NP[Dap]L[Hyp]WS[X1][NMeNle][Orn]CG-NH2; thioether N-13) | 100 to 10000 nM | 
2 | CCCC[C@H]1C(=O)N[C@@H](CCCNC(=N)N)C(=O)N[C@H](C(=O)NCC(N)=O)CSCC(=O)N[C@@H](Cc2ccc(O)cc2)C(=O)N(C)[C@@H](C)C(=O)N[C@@H](CC(N)=O)C(=O)N2CCC[C@H]2C(=O)N[C@@H](Cc2cnc[nH]2)C(=O)N[C@@H](CC(C)C)C(=O)N2C[C@H](O)C[C@H]2C(=O)N[C@@H](Cc2c[nH]c3ccccc23)C(=O)N[C@@H](CO)C(=O)N[C@@H](Cc2cccc3ccccc23)c2nnnn2[C@@H](CCCC)C(=O)N1C [Example 1052] | 10 to 99 nM | 
3 | CCCC[C@H]1C(=O)N[C@@H](CCC(=O)O)C(=O)N[C@H](C(=O)NCC(N)=O)CSCC(=O)N[C@@H](Cc2ccc(O)cc2)C(=O)N2CCOC[C@H]2C(=O)N[C@@H](CC(N)=O)C(=O)N2CCC[C@H]2C(=O)N[C@@H](CN)C(=O)N[C@@H](CC(C)C)C(=O)N2C[C@H](O)C[C@H]2C(=O)N[C@@H](Cc2c[nH]c3ccccc23)C(=O)N[C@@H](CO)C(=O)N[C@@H](Cc2c[nH]c3ccccc23)c2nnnn2[C@@H](CCCC)C(=O)N1C [Example 1053] ({CH2CO}-Y[Morpholine(3S-CO)]NP[Dap]L[Hyp]WS[X1][NMeNle]ECG-NH2; thioether N-13) | 10 to 99 nM | 
4 | CCCC[C@H]1C(=O)N[C@@H](CCCN)C(=O)NC(C(=O)NCC(N)=O)CSCC(=O)N[C@@H](Cc2ccc(O)cc2)C(=O)N2CCOC[C@H]2C(=O)N[C@@H](CC(N)=O)C(=O)N2CCC[C@H]2C(=O)N[C@@H](CN)C(=O)N[C@@H](CC(C)C)C(=O)N2C[C@H](O)C[C@H]2C(=O)N[C@@H](Cc2c[nH]c3ccccc23)C(=O)N[C@@H](CO)C(=O)N[C@@H](Cc2c[nH]c3ccccc23)c2nnnn2[C@@H](CCCC)C(=O)N1C (stereo partly drawn) [Example 1054] ({CH2CO}-Y[Morpholine(3S-CO)]NP[Dap]L[Hyp]WS[X1][NMeNle][Orn][ξC]G-NH2; thioether N-13) | 100 to 10000 nM | 
5 | CCCC[C@H]1C(=O)N[C@@H](C)C(=O)N[C@H](C(=O)NCC(N)=O)CSCC(=O)N[C@@H](Cc2ccc(O)cc2)C(=O)N2CCOC[C@H]2C(=O)N[C@@H](CC(N)=O)C(=O)N2CCC[C@H]2C(=O)N[C@@H](CN)C(=O)N[C@@H](CC(C)C)C(=O)N2C[C@H](O)C[C@H]2C(=O)N[C@@H](Cc2c[nH]c3ccccc23)C(=O)N[C@@H](CO)C(=O)N[C@@H](Cc2c[nH]c3ccccc23)c2nnnn2[C@@H](CCCC)C(=O)N1C [Example 1055] ({CH2CO}-Y[Morpholine(3S-CO)]NP[Dap]L[Hyp]WS[X1][NMeNle]ACG-NH2; thioether N-13) |  | 8 nM
6 | CCCC[C@H]1C(=O)N(C)[C@@H](CCCC)C(=O)N[C@@H](CCC(=O)O)C(=O)N[C@H](C(=O)NCC(N)=O)CSCC(=O)N[C@@H](Cc2ccc(O)cc2)c2nnnn2[C@@H](C)C(=O)N[C@@H](CC(=O)O)C(=O)N2CCC[C@H]2C(=O)N[C@@H](CN)C(=O)N[C@@H](CCC(=O)O)C(=O)N2C[C@H](O)C[C@H]2C(=O)N[C@@H](Cc2c[nH]c3ccccc23)C(=O)N[C@@H](CCN)C(=O)N[C@@H](Cc2c[nH]c3ccccc23)C(=O)N1C [Example 1056] ({CH2CO}-[Tyrψ(CN4)Ala]DP[Dap]E[Hyp]W[Dab]W[NMeNle][NMeNle]ECG-NH2; thioether N-13) | 100 to 10000 nM | 
7 | CCCC[C@H]1C(=O)N(C)[C@@H](CCCC)C(=O)N[C@@H](CC(C)C)C(=O)N[C@H](C(=O)NCC(N)=O)CSCC(=O)N[C@@H](Cc2ccc(O)cc2)c2nnnn2[C@@H](C)C(=O)N[C@@H](CC(N)=O)C(=O)N2CCC[C@H]2C(=O)N[C@@H](Cc2cnc[nH]2)C(=O)N[C@@H](CCC(N)=O)C(=O)N2C[C@H](O)C[C@H]2C(=O)N[C@@H](Cc2c[nH]c3ccccc23)C(=O)N[C@@H](CO)C(=O)N[C@@H](Cc2c[nH]c3ccccc23)C(=O)N1C [Example 1057] ({CH2CO}-[Tyrψ(CN4)Ala]NPHQ[Hyp]WSW[NMeNle][NMeNle]LCG-NH2; thioether N-13) | 100 to 10000 nM | 
8 | CCCC[C@H]1C(=O)N[C@@H](CN)C(=O)N[C@H](C(=O)NCC(N)=O)CSCC(=O)N[C@@H](Cc2ccc(O)cc2)C(=O)N2CCCC[C@H]2C(=O)N[C@@H](CC(N)=O)C(=O)N2CCC[C@H]2C(=O)N[C@@H](CN)C(=O)N[C@@H](CCC(=O)O)C(=O)N2C[C@H](O)C[C@H]2C(=O)N[C@@H](Cc2c[nH]c3ccccc23)C(=O)N[C@@H](CCN)C(=O)N[C@@H](Cc2cccc3ccccc23)c2nnnn2[C@@H](CCCC)C(=O)N1C [Example 1059] | 10 to 99 nM | 
9 | CCCC[C@H]1C(=O)N(C)[C@@H](CCCC)C(=O)N[C@@H](CC(C)C)C(=O)N[C@H](C(=O)NCC(=O)O)CSCC(=O)N[C@@H](Cc2ccc(O)cc2)c2nnnn2[C@@H](C)C(=O)N[C@@H](CC(N)=O)C(=O)N2CCC[C@H]2C(=O)NC(Cc2c[nH]cn2)C(=O)N[C@@H](CCC(N)=O)C(=O)N2C[C@H](O)C[C@H]2C(=O)N[C@@H](Cc2c[nH]c3ccccc23)C(=O)N[C@@H](CO)C(=O)N[C@@H](Cc2csc3ccccc23)C(=O)N1C (stereo partly shown) [Example 1061] ({CH2CO}-[Tyrψ(CN4)Ala]NP[ξH]Q[Hyp]WS[Bta][NMeNle][NMeNle]LCG-OH; thioether N-13) | 100 to 10000 nM | 
10 | CCCC[C@H]1C(=O)N[C@@H](C)C(=O)N[C@H](C(=O)NCC(N)=O)CSCC(=O)N[C@@H](Cc2ccc(O)cc2)C(=O)N(C)[C@@H](C)C(=O)N[C@@H](CC(N)=O)C(=O)N2CCC[C@H]2C(=O)N[C@@H](CN)C(=O)N[C@@H](CC(C)C)C(=O)N2C[C@H](O)C[C@H]2C(=O)N[C@@H](Cc2c[nH]c3ccccc23)C(=O)N[C@@H](CO)C(=O)N[C@@H](Cc2c[nH]c3ccccc23)c2nnnn2[C@@H](CCCC)C(=O)N1C [Example 1100] ({CH2CO}-Y[NMeA]NP[Dap]L[Hyp]WS[X1][NMeNle]ACG-NH2; thioether N-13) | 100 to 10000 nM | 
11 | CCCC[C@H]1C(=O)N[C@@H](CCC(=O)O)C(=O)N[C@H](C(=O)NCC(N)=O)CSCC(=O)N[C@@H](Cc2ccc(O)cc2)C(=O)N(C)[C@@H](C)C(=O)N[C@@H](CC(=O)O)C(=O)N2CCC[C@H]2C(=O)N[C@@H](CN)C(=O)N[C@@H](CCC(=O)O)C(=O)N2C[C@H](O)C[C@H]2C(=O)N[C@@H](Cc2c[nH]c3ccccc23)C(=O)N[C@@H](CO)C(=O)N[C@@H](Cc2c[nH]c3ccccc23)c2nnnn2[C@@H](CCCC)C(=O)N1C [Example 1101] ({CH2CO}-Y[NMeA]DP[Dap]E[Hyp]WS[X1][NMeNle]ECG-NH2; thioether N-13) | 100 to 10000 nM | 
12 | CCCC[C@H]1C(=O)N[C@@H](CCC(=O)O)C(=O)N[C@H](C(=O)NCC(N)=O)CSCC(=O)N[C@@H](Cc2ccc(O)cc2)C(=O)N(C)[C@@H](C)C(=O)N[C@@H](CC(N)=O)C(=O)N2CCC[C@H]2C(=O)N[C@@H](CN)C(=O)N[C@@H](CC(C)C)C(=O)N2C[C@H](O)C[C@H]2C(=O)N[C@@H](Cc2c[nH]c3ccccc23)C(=O)N[C@@H](CO)C(=O)N[C@@H](Cc2c[nH]c3ccccc23)c2nnnn2[C@@H](CCCC)C(=O)N1C [Example 1102] ({CH2CO}-Y[NMeA]NP[Dap]L[Hyp]WS[X1][NMeNle]ECG-NH2; thioether N-13) | 100 to 10000 nM | 
13 | CCCC[C@H]1C(=O)N[C@@H](C)C(=O)N[C@H](C(=O)NCC(N)=O)CSCC(=O)N[C@@H](Cc2ccc(O)cc2)C(=O)N(C)[C@@H](C)C(=O)N[C@@H](CC(=O)O)C(=O)N2CCC[C@H]2C(=O)N[C@@H](Cc2cnc[nH]2)C(=O)N[C@@H](CCC(N)=O)C(=O)N2C[C@H](O)C[C@H]2C(=O)N[C@@H](Cc2c[nH]c3ccccc23)C(=O)N[C@@H](CO)C(=O)N[C@@H](Cc2cccc3ccccc23)c2nnnn2[C@@H](CCCC)C(=O)N1C [Example 1103] | 100 to 10000 nM | 
